{"source": "ChEMBL document CHEMBL2375355", "about": "“Practical synthesis of a chromene analog for use as a retinoic acid receptor alpha antagonist lead compound” (Eur J Med Chem, 2013)", "assay_type_in_all_cases": "cell-based", "key": {"[1]": {"molecular_target": "T1, Retinoic acid receptor alpha (Homo sapiens) (UniProt P10276)", "T1 sequence (whole entry)": "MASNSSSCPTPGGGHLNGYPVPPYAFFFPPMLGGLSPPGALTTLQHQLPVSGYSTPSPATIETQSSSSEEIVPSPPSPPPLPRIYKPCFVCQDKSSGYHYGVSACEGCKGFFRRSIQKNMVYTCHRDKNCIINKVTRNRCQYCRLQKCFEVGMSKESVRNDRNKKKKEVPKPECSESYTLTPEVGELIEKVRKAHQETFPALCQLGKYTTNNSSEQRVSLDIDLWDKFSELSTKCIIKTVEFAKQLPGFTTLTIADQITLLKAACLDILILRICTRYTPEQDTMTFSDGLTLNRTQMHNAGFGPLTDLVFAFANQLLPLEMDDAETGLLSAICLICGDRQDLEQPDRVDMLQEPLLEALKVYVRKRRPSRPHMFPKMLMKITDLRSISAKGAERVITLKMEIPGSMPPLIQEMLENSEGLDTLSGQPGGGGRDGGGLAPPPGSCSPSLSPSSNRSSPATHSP", "assay": "Antagonist activity at RARalpha in human MCF7 cells assessed as inhibition of ATRA-induced luciferase activity at 0.1 to 1 nM after 48 hrs by luciferase reporter gene assay"}, "[2]": {"molecular_target": "T1, Retinoic acid receptor alpha (Homo sapiens)", "assay": "Antagonist activity at RARalpha in human MCF7 cells assessed as inhibition of ATRA-induced luciferase activity after 48 hrs by luciferase reporter gene assay"}, "[3]": {"molecular_target": "T1, Retinoic acid receptor alpha (Homo sapiens)", "assay": "Antagonist activity at RARalpha in human MCF7 cells assessed as inhibition of ATRA-induced luciferase activity at 10 nM after 48 hrs by luciferase reporter gene assay"}}, "note": "The source made the active and inactive calls. The calls are words filed in the database; no cut-off is given here.", "data": [{"smiles": "Cc1ccc(C2=CC(C)(C)Oc3c(Br)cc(C(=O)Nc4ccc(C(=O)O)c(F)c4)cc32)cc1", "values": [{"measurement": "inhibition", "setting": "[1]", "result": "Active"}]}, {"smiles": "Cc1ccc(C2=CC(C)(C)Oc3c(Br)cc(C(=O)Nc4ccc(C(=O)O)cc4)cc32)cc1", "values": [{"measurement": "inhibition", "setting": "[2]", "result": "Dose-dependent effect"}, {"measurement": "inhibition", "setting": "[3]", "result": "Active"}]}]}
